The Kd is the free concentration of one partner at which half of the binding sites on the other are occupied at equilibrium, for simple one-to-one binding.

Assay [1] has as its target T1, Gastrotropin (Homo sapiens, UniProt P51161).
T1 sequence (P51161 whole entry): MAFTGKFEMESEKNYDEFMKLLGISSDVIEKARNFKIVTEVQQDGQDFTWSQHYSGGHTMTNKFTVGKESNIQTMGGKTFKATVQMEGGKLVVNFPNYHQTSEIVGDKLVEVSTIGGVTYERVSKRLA
The assay can be described thus: Binding affinity to recombinant human N-terminal His6 and Avi-tagged FABP6 expressed in Escherichia coli NEB cells by surface plasmon resonance method. (In SPR one partner is held on a chip, and binding of the other changes the refractive index at the surface.)

In assay [2] the target is T2, Fatty acid-binding protein, liver (Homo sapiens, UniProt P07148).
T2 sequence (P07148 whole entry): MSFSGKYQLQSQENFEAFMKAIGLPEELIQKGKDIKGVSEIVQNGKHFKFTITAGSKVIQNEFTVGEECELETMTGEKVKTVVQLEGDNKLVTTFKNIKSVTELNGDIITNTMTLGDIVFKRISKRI
As to the kind of experiment: Binding affinity to recombinant human N-terminal His6 and Avi-tagged FABP1 expressed in Escherichia coli NEB cells by surface plasmon resonance method.

Each structure is given as a SMILES string. A value given as a limit tells only on which side of the number the result lay.

As to `CS(=O)(=O)N1CCCC(NCc2ccccc2)CC1` (centres undefined), the Kd was 300 µM in assay [1] and > 1000 µM in assay [2].
For the compound `COC(=O)c1cscc1-c1ccc(C(=O)N2CCOCC2)o1`, the Kd in assay [1] was 80 µM; in assay [2] it was > 1000 µM.
For `O=C1NCCOc2ccc(F)cc21`, the dissociation constant Kd is 40 µM in assay [1] and > 1000 µM in assay [2].
As to `O=C(c1ccco1)N1CCN(Cc2ccc3c(c2)OCO3)CC1`, the Kd amounted to 210 µM in assay [1] and 400 µM in assay [2].
Turning to `Nc1c2c(nc3ccccc13)CCCC2` [TACRINE], the Kd stood at 200 µM in assay [1] and 900 µM in assay [2].
On the same counts, the results for `CN1CCN(C(=O)c2ccc(=O)n(Cc3ccc(Cl)cc3)c2)CC1` are 210 µM and > 1000 µM.
Regarding `Cc1nc(Cn2cnc3cc(C)c(C)cc32)cs1`, the Kd in assay [1] came to 400 µM.
As for `Nc1nc2ccc(C(=O)c3ccccc3)cc2[nH]1`, the Kd in assay [1] was 13 µM.
As for `Cc1cc2nc(N)[nH]c2cc1C`, the dissociation constant (Kd) in assay [2] is > 1000 µM.
Take `c1ccc(CNc2ccccn2)cc1`: the Kd in assay [1] and in assay [2] was 300 µM each time.
Take `Cc1ccccc1CN1CCN(C(=O)c2cccnc2)CC1`: the dissociation constant Kd was 290 µM in assay [1] and > 1000 µM in assay [2].
